This note sets out measurements from patent US12528767B2, “HDAC6 inhibitors and uses thereof” (Eikonizo Therapeutics, Inc., priority 2019, dated 2026).

For assay [1], the target named is T1, Full length Human HDAC6 (Homo sapiens, UniProt Q9UBN7).
T1 sequence (Q9UBN7 1-1215): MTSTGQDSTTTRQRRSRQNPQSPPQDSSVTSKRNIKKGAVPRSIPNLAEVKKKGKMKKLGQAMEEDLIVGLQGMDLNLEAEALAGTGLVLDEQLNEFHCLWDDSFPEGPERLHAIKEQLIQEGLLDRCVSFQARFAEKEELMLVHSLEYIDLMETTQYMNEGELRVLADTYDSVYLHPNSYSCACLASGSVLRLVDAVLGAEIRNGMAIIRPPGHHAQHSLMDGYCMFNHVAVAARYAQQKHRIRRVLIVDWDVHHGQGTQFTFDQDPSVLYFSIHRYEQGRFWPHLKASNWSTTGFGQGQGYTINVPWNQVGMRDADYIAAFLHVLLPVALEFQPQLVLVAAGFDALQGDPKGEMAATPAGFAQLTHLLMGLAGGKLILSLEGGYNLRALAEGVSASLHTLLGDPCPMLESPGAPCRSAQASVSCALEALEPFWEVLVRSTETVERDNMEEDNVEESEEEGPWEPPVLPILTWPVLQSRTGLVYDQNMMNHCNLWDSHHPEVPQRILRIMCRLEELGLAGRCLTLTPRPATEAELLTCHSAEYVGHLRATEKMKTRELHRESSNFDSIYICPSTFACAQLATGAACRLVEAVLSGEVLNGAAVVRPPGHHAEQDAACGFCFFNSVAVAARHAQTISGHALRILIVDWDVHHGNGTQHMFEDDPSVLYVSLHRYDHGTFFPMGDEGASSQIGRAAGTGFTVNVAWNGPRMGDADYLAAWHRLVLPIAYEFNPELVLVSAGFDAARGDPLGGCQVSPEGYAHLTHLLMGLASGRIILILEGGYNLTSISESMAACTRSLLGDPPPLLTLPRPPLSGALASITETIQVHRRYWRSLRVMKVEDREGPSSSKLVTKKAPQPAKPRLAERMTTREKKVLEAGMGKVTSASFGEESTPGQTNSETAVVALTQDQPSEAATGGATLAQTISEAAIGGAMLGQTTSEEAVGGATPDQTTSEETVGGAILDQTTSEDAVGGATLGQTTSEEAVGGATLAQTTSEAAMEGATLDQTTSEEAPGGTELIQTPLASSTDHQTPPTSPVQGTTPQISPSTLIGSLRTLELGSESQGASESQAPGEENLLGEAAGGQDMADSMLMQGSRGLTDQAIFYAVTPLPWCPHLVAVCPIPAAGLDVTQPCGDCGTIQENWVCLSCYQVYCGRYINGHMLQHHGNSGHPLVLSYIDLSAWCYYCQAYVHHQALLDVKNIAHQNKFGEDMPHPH
The settings on record: for Selectivity (6 v 8) (fold): ratio of HDAC8 IC50/HDAC6 IC50.

Assay [2] has as its target T2, Full length Human HDAC8 (Homo sapiens, UniProt Q9BY41).
T2 sequence (Q9BY41 1-377): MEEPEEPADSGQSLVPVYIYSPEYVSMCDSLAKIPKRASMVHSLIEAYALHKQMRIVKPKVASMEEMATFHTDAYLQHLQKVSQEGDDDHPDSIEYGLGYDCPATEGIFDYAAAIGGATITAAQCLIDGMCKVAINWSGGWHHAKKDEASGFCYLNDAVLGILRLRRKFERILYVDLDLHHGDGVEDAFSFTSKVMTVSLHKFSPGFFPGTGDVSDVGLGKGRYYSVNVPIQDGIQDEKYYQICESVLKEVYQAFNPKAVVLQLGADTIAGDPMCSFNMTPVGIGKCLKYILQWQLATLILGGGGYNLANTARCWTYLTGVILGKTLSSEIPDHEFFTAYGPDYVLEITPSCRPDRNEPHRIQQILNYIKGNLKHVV

Like-named read-outs stand apart in the source and are kept apart here.

For orientation: IC50 means the point on the concentration scale where inhibition reaches its midpoint. A high value points to a need for much substance.

In the case of `CN1CC2CCC(C1)N2Cc1ccc(C(=O)NO)cc1F` [compound 56], the concentration for half-maximal inhibition (IC50) fell in the range of 1 to 100 nM in assay [1] and 100 to 1000 nM in assay [2]. The “Selectivity (6 v 8) (fold)” value is on record as 19 fold in assay [1] (Table 1, number) and “III (III: >10-100)” in assay [1] (Table 1, range class).
For `CC1(C)C[C@H]2Cc3cc(C(=O)NO)cc(F)c3CN2C1` (single isomer, unassigned) [compound 125], the values for the concentration for half-maximal inhibition (IC50) in assay [1] and in assay [2] were 1 to 100 nM and 1000 to 10000 nM, respectively. Also, the “Selectivity (6 v 8) (fold)” value is 82 fold in assay [1] (Table 1, number) and “III (III: >10-100)” in assay [1] (Table 1, range class).
The corresponding values for `O=C(NO)c1ccc(CN2CC3(CCCCC3)C2)c(F)c1` [compound 70] are 1 to 100 nM, 1000 to 10000 nM, 16 fold and “III (III: >10-100)”.
The corresponding values for `O=C(NO)c1cc(F)c2c(c1)CCN([C@H]1CCC13CCCCC3)C2` (single isomer, unassigned) [compound 9] are 1 to 100 nM, 10000 to 100000 nM, 207.1 fold and “IV (IV: >100-1000)”.
Turning to `O=C1CC2CCCC(C1)N2Cc1ccc(C(=O)NO)cc1F` [compound 62], the figures for the 50% inhibitory concentration (IC50) in assay [1] and in assay [2] were 1 to 100 nM and 100 to 1000 nM, respectively. Further, the “Selectivity (6 v 8) (fold)” value in assay [1] (Table 1, number) is 30.6 fold; in assay [1] (Table 1, range class), “III (III: >10-100)”.
Turning to `Cc1cccc(C)c1CN1CCc2cc(C(=O)NO)cc(F)c2C1` [compound 28], the results for the 50% inhibitory concentration (IC50) in assay [1] and in assay [2] were 1 to 100 nM and 1000 to 10000 nM, respectively.
For `Cc1ccn2c1-c1c(F)cc(C(=O)NO)cc1CC2` [compound 155, 10-fluoro-N-hydroxy-1-methyl-5,6-dihydropyrrolo[2,1-a] isoquinoline-8-carboxamide], the IC50 in assay [1] was 1 to 100 nM; in assay [2], 100 to 1000 nM. The “Selectivity (6 v 8) (fold)” value is given as 6.1 fold in assay [1] (Table 1, number) and “II (II: >1-10)” in assay [1] (Table 1, range class).
For the molecule `O=C(NO)c1cc(F)c2c(c1)CN(CC13CC4CC(CC(C4)C1)C3)CC2` [compound 113, 2-(((3r,5r,7r)-adamantan-1-yl)methyl)-5-fluoro-N-hydroxy-1,2,3,4-tetrahydroisoquinoline-7-carboxamide], the IC50 in assay [1] lay within 1 to 100 nM; in assay [2], 1000 to 10000 nM.
As for `CN1CC2CCC1CN2Cc1ccc(C(=O)NO)cc1F` (stereo not shown) [compound 57], the IC50 fell in the range of 1 to 100 nM in assay [1] and 100 to 1000 nM in assay [2]. Besides, the “Selectivity (6 v 8) (fold)” value in assay [1] (Table 1, number) is on record as 10.7 fold; in assay [1] (Table 1, range class), “III (III: >10-100)”.
Take `CC1(CN2CCc3cc(C(=O)NO)cc(F)c3C2)CC1` [compound 1, 8-fluoro-N-hydroxy-2-((1-methylcyclopropyl)methyl)-1,2,3,4-tetrahydroisoquinoline-6-carboxamide]: the results for the half-maximal inhibitory concentration (IC50) in assay [1] and in assay [2] were 1 to 100 nM and 10000 to 100000 nM, respectively. Moreover, the “Selectivity (6 v 8) (fold)” value in assay [1] (Table 1, number) is reported as 145.7 fold; in assay [1] (Table 1, range class) it was “IV (IV: >100-1000)”.
Take `O=C(NO)c1ccc2c(c1)C[C@@H]1COCC(=O)N1C2` (single isomer, unassigned) [compound 133]: the IC50 in assay [1] lay in the range of 100 to 1000 nM; in assay [2] it was 1000 to 10000 nM.
With `O=C(NO)c1ccc(CN2CCC3(CCCC3)C2)c(F)c1` [compound 73], the results for the half-maximal inhibitory concentration (IC50) in assay [1] and in assay [2] were 1 to 100 nM and 1000 to 10000 nM, respectively. Also, the “Selectivity (6 v 8) (fold)” value in assay [1] (Table 1, number) is recorded as 35.8 fold; in assay [1] (Table 1, range class) it was “III (III: >10-100)”.
For `O=C1CC2CCC(C1)N2Cc1ccc(C(=O)NO)cc1F` [compound 63], the IC50 in assay [1] lay in the range of 1 to 100 nM; in assay [2], 100 to 1000 nM. Moreover, the “Selectivity (6 v 8) (fold)” value in assay [1] (Table 1, number) was 42.1 fold; in assay [1] (Table 1, range class) it was “III (III: >10-100)”.
The matching figures for `CN1Cc2ccc(C(=O)NO)cc2CN1Cc1ccccc1` [compound 117, 3-benzyl-N-hydroxy-2-methyl-1,2,3,4-tetrahydrophthalazine-6-carboxamide]: 1 to 100 nM, 100 to 1000 nM, 7.9 fold and “II (II: >1-10)”.
On to `O=C(NO)c1cc(F)c2c(c1)CCn1cccc1-2` [compound 147, 10-fluoro-N-hydroxy-5,6-dihydropyrrolo[2,1-a] isoquinoline-8-carboxamide], for which the IC50 in assay [1] was 1 to 100 nM; in assay [2] it was 1000 to 10000 nM.
Regarding `O=C(NO)c1cc(F)c2c(c1)CN(CC1COC1)CC2` [compound 115, 5-fluoro-N-hydroxy-2-(oxetan-3-ylmethyl)-1,2,3,4-tetrahydroisoquinoline-7-carboxamide], the IC50 in assay [1] lay within 100 to 1000 nM; in assay [2], 1000 to 10000 nM.
In the case of `O=C(NO)c1ccc(CN2CC3(CCCC3)C2)c(F)c1` [compound 69], the values for the concentration for half-maximal inhibition (IC50) in assay [1] and in assay [2] were 1 to 100 nM and 1000 to 10000 nM, respectively. The “Selectivity (6 v 8) (fold)” value in assay [1] (Table 1, number) is on record as 20.6 fold; in assay [1] (Table 1, range class) it was “III (III: >10-100)”.
With `O=C(NO)c1cc(F)c2c(c1)CCN(CC1CC1)C2` [compound 2], the IC50 in assay [1] was in the range of 1 to 100 nM; in assay [2] it was 1000 to 10000 nM.
On to `O=C(NO)c1cc(F)c2c(c1)CN(Cc1ccccc1)CC2` [compound 114, 2-benzyl-5-fluoro-N-hydroxy-1,2,3,4-tetrahydroisoquinoline-7-carboxamide], for which the IC50 in assay [1] lay within 1 to 100 nM; in assay [2], 100 to 1000 nM. The “Selectivity (6 v 8) (fold)” value is 10.3 fold in assay [1] (Table 1, number) and “III (III: >10-100)” in assay [1] (Table 1, range class).
On to `CN1Cc2cc(C(=O)NO)ccc2-c2cccn21` [compound 162, N-hydroxy-5-methyl-5,6-dihydropyrrolo[2,1-a]phthalazine-8-carboxamide], for which the IC50 lay within 100 to 1000 nM in assay [1] and 1000 to 10000 nM in assay [2]. Also, the “Selectivity (6 v 8) (fold)” value is listed as 2.8 fold in assay [1] (Table 1, number) and “II (II: >1-10)” in assay [1] (Table 1, range class).
As for `CN1Cc2cc(C(=O)NO)ccc2CN1Cc1ccccc1` [compound 118, 2-benzyl-N-hydroxy-3-methyl-1,2,3,4-tetrahydrophthalazine-6-carboxamide], the IC50 in assay [1] is 1 to 100 nM; in assay [2], 1000 to 10000 nM.
`O=C(NO)c1ccc(CN2CCCOCC2)c(F)c1` [compound 47]: the concentration for half-maximal inhibition (IC50) in assay [1] is 1 to 100 nM; in assay [2], 100 to 1000 nM. For the same molecule, the “Selectivity (6 v 8) (fold)” value in assay [1] (Table 1, number) was 22.3 fold; in assay [1] (Table 1, range class), “III (III: >10-100)”.
Consider `O=C(NO)c1ccc(CN2CCCC3(C2)C2CC4CC(C2)CC3C4)c(F)c1` (stereo not shown) [compound 77], for which the IC50 in assay [1] is 1 to 100 nM; in assay [2], 1000 to 10000 nM.
Turning to `O=C(NO)c1cc(F)c2c(c1)C[C@H]1CCC3(CCCCC3)CN1C2` (single isomer, unassigned) [compound 138], the IC50 in assay [1] lay within 100 to 1000 nM; in assay [2], 10000 to 100000 nM. In addition, the “Selectivity (6 v 8) (fold)” value in assay [1] (Table 1, number) was 45 fold; in assay [1] (Table 1, range class), “III (III: >10-100)”.
For the molecule `CN1CC2(CCCCC2)CC[C@H]1Cc1cc(F)cc(C(=O)NO)c1` (single isomer, unassigned) [compound 171], the half-inhibitory concentration (IC50) lay within 1 to 100 nM in assay [1] and 1000 to 10000 nM in assay [2]. For the same molecule, the “Selectivity (6 v 8) (fold)” value was 30.2 fold in assay [1] (Table 1, number) and “III (III: >10-100)” in assay [1] (Table 1, range class).
As for `O=C(NO)c1ccc2c(c1)CN1CCC[C@@H]21` (single isomer, unassigned) [compound 165], the IC50 was in the range of 100 to 1000 nM in assay [1] and 1000 to 10000 nM in assay [2]. Moreover, the “Selectivity (6 v 8) (fold)” value in assay [1] (Table 1, number) is 15 fold; in assay [1] (Table 1, range class), “III (III: >10-100)”.
